Assay results published in patent US11414379B2, “SPAK kinase inhibitors as neuroprotective agents” (United States Government as represented by the Department …, priority 2018, dated 2022).

Columns and labels:
Assay in all cases: Kinase panel (Dundee profiling)
Assay type in all cases: biochemical
Settings in all cases: read-out: % residual kinase activity
TrkA = TrkA (Homo sapiens, UniProt P04629)
Outline: (§1)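 Each recombinant kinase of a 140-member panel was assayed radioisotopically in the presence of compound at 1 or 10 μM, and activity was expressed as percent remaining versus DMSO control (n=3, mean±SEM).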

ERK5 = ERK5 (Homo sapiens, UniProt Q13164)
Outline: as §1

Lck = Lck (Homo sapiens, UniProt P06239)
Outline: as §1

EF2K = EF2K (Homo sapiens, UniProt O00418)
Outline: as §1

PIM1 = PIM1 (Homo sapiens, UniProt P11309)
Outline: as §1

DDR2 = DDR2 (Homo sapiens, UniProt Q16832)
DDR2, sequence (Q16832 22-855, species assumed): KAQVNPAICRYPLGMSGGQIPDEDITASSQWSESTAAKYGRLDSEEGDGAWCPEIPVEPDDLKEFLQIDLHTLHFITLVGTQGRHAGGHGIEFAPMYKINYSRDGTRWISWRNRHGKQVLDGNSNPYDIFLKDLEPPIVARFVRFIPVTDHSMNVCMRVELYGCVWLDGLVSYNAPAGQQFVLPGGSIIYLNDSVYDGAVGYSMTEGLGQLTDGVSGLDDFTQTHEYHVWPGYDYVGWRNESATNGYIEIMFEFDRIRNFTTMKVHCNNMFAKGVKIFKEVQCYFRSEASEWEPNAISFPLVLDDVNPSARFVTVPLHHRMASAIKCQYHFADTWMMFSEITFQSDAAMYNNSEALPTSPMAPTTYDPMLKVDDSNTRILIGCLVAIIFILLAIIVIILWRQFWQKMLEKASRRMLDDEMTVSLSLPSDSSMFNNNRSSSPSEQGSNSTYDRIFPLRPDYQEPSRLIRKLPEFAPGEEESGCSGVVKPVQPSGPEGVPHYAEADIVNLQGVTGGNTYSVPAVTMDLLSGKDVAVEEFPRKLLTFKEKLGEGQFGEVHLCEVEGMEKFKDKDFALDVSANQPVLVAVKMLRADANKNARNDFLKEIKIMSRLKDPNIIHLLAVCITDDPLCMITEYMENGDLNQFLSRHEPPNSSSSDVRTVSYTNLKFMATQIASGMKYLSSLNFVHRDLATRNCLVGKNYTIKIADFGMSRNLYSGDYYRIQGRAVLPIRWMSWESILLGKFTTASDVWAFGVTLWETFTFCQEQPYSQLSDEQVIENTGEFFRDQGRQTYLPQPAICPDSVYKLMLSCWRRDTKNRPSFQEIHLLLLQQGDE
Outline: as §1

DYRK1A = DYRK1A (Homo sapiens, UniProt Q13627)
Outline: as §1

MST3 = MST3 (Homo sapiens, UniProt Q9Y6E0)
Outline: as §1

MINK1 = MINK1 (Homo sapiens, UniProt Q8N4C8)
MINK1, sequence (Q8N4C8 whole entry, species assumed): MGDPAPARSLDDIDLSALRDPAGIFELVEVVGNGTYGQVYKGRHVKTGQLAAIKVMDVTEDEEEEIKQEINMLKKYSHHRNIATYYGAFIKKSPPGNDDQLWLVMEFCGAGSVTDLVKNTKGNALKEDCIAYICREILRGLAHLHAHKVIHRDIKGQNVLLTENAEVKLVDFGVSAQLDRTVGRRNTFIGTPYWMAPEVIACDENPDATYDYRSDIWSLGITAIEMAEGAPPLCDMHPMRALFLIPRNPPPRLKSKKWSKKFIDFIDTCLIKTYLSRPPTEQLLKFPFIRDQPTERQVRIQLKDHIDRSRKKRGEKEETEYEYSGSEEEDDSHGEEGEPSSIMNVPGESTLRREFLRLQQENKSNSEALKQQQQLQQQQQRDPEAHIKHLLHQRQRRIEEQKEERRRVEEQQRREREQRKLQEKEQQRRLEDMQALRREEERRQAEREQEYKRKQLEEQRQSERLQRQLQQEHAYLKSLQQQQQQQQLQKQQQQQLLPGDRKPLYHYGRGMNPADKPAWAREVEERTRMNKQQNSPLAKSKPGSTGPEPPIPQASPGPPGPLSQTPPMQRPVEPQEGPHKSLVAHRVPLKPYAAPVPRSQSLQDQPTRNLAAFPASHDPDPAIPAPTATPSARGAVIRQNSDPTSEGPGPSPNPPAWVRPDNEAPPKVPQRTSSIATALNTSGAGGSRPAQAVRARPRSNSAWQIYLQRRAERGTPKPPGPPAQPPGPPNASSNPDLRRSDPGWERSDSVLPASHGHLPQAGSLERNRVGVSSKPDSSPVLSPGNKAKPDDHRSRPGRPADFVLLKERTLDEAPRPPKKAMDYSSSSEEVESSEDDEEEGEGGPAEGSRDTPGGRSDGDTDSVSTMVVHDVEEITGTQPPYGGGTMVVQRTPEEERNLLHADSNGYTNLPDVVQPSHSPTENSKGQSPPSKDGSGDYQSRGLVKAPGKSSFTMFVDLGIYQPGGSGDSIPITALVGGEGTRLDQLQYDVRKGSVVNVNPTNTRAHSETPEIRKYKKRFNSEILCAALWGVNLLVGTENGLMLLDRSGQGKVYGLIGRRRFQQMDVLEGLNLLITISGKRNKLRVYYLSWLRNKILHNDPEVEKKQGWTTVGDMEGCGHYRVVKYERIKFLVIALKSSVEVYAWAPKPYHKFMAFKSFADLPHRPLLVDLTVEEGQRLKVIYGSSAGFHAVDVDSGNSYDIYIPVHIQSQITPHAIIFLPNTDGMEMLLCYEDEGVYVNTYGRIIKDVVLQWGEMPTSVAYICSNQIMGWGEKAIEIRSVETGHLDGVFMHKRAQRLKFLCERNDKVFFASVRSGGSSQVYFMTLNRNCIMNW
Outline: as §1

PDK1 = PDK1 (Homo sapiens, UniProt O15530)
Outline: as §1

HIPK2 = HIPK2 (Homo sapiens, UniProt Q9H2X6)
Outline: as §1

CK2 = CK2 (Homo sapiens, UniProt P68400)
Outline: as §1

FGF-R1 = FGF-R1 (Homo sapiens, UniProt P11362)
FGF-R1, sequence (P11362 22-822, species assumed): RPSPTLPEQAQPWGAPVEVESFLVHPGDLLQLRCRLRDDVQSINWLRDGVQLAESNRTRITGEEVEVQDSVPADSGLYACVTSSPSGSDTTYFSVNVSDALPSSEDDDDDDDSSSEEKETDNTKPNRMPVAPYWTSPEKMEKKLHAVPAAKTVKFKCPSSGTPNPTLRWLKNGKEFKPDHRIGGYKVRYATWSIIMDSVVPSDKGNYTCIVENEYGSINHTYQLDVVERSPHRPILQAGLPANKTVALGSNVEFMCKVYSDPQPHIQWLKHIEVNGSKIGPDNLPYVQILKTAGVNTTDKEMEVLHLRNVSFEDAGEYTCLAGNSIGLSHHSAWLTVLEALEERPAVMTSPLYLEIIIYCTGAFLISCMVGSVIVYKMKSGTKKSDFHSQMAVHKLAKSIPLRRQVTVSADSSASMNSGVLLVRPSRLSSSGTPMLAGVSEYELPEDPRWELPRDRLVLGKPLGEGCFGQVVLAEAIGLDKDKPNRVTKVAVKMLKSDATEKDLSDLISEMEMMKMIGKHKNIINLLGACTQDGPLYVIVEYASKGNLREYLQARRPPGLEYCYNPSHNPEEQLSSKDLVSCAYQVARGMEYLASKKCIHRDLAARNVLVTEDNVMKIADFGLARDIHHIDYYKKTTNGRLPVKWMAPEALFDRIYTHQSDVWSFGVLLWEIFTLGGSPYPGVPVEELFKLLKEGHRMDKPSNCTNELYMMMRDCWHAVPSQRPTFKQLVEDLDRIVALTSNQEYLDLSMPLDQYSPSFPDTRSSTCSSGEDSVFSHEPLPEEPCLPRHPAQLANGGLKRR
Outline: as §1

VEG-FR = VEG-FR (Homo sapiens, UniProt P17948)
Outline: as §1

BRSK2 = BRSK2 (Homo sapiens, UniProt Q8IWQ3)
Outline: as §1

BRSK1 = BRSK1 (Homo sapiens, UniProt Q8TDC3)
Outline: as §1

EPH-B1 = EPH-B1 (Homo sapiens, UniProt P54762)
Outline: as §1

CHK2 = CHK2 (Homo sapiens, UniProt O96017)
CHK2, sequence (O96017 whole entry, species assumed): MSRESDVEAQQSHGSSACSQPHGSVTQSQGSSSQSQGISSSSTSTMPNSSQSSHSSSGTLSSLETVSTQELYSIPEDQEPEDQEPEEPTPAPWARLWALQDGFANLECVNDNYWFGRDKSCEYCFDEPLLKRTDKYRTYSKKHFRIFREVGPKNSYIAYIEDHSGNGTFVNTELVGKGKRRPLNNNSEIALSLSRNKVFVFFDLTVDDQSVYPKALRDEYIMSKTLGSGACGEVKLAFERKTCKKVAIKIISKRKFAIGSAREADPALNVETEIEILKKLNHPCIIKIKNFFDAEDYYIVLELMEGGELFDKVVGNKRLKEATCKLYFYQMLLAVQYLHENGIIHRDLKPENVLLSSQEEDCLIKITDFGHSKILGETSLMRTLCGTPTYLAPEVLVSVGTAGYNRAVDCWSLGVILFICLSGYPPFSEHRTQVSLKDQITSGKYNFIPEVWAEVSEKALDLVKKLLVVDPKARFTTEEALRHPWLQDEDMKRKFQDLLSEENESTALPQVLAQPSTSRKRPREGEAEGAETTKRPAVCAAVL
Outline: as §1

PINK = PINK (Tribolium castaneum, UniProt D6WMX4)
PINK, sequence (D6WMX4 6-570): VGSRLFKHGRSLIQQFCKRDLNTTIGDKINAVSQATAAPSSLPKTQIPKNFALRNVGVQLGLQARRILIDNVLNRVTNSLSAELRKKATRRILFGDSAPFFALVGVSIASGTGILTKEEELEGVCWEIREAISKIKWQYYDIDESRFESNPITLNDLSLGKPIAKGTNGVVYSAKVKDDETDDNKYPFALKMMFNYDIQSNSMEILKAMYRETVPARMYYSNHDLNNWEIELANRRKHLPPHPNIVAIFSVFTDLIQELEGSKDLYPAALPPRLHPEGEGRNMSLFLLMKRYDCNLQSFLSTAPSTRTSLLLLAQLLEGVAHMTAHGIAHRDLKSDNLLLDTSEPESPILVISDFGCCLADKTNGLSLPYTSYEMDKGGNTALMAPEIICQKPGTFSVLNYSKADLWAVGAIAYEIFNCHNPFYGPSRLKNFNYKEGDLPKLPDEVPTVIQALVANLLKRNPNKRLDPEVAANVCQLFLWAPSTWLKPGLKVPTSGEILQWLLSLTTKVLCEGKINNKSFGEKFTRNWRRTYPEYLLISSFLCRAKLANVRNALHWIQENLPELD
Outline: as §1

RSK2 = RSK2 (Homo sapiens, UniProt P51812)
Outline: as §1

TrkA, sequence (P04629 33-796, species assumed): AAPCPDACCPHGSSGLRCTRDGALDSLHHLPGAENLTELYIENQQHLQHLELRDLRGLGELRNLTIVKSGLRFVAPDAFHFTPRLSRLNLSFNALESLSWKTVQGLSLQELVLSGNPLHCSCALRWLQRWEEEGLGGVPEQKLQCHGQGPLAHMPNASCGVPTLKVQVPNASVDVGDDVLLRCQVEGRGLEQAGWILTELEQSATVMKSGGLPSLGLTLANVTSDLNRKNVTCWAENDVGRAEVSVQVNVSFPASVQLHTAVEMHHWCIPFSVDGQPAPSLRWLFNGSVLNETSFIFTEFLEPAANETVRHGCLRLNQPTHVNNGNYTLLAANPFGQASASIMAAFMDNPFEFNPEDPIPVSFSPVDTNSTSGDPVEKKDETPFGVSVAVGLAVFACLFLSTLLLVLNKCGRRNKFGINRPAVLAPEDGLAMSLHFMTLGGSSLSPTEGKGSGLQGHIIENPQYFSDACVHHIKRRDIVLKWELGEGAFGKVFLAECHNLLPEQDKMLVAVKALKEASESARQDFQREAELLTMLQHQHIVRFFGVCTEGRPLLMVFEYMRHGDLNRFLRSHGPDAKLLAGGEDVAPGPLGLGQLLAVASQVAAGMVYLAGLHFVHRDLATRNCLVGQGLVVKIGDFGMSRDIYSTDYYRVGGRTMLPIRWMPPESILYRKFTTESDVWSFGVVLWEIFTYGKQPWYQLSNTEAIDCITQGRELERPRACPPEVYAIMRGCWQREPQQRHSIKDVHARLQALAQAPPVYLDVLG

In the case of `Cc1cc(C(C#N)c2ccc(Cl)cc2)c(Cl)cc1NC(=O)c1cc(Cl)ccc1O` (stereo not shown) [ZT-1a, 5-chloro-N-(5-chloro-4-((4-chlorophenyl)(cyano)methyl)-2-methylphenyl)-2-hydroxy-benzamide], the remaining activity at 1 µM (TrkA; 1 μM) is reported as 108 ± 9%, the remaining activity at 10 µM (TrkA; 10 μM) is reported as 91 ± 7% and the remaining activity at 1 µM (ERK5; 1 μM) is reported as 120 ± 9%. It also gave a remaining activity at 10 µM (ERK5; 10 μM) of 114 ± 5%, a remaining activity at 1 µM (Lck; 1 μM) of 112 ± 13% and a remaining activity at 10 µM (Lck; 10 μM) of 127 ± 14%. It also gave a remaining activity at 1 µM (EF2K; 1 μM) of 104 ± 13%, a remaining activity at 10 µM (EF2K; 10 μM) of 56 ± 2% and a remaining activity at 1 µM (PIM1; 1 μM) of 108 ± 19%. It also gave a remaining activity at 10 µM (PIM1; 10 μM) of 101 ± 8%, a remaining activity at 1 µM (DDR2; 1 μM) of 111 ± 20% and a remaining activity at 10 µM (DDR2; 10 μM) of 99 ± 8%. The remaining activity at 1 µM (DYRK1A; 1 μM) was 119 ± 7%, the remaining activity at 10 µM (DYRK1A; 10 μM) was 103 ± 1% and the remaining activity at 1 µM (MST3; 1 μM) was 109 ± 8%. It also gave a remaining activity at 10 µM (MST3; 10 μM) of 113 ± 15%, a remaining activity at 1 µM (MINK1; 1 μM) of 107 ± 5% and a remaining activity at 10 µM (MINK1; 10 μM) of 108 ± 6%. It also gave a remaining activity at 1 µM (PDK1; 1 μM) of 92 ± 6%, a remaining activity at 10 µM (PDK1; 10 μM) of 69 ± 17% and a remaining activity at 1 µM (HIPK2; 1 μM) of 90 ± 14%. The remaining activity at 10 µM (HIPK2; 10 μM) was 91 ± 4%, the remaining activity at 1 µM (CK2; 1 μM) was 72 ± 15% and the remaining activity at 10 µM (CK2; 10 μM) was 59 ± 16%. It also gave a remaining activity at 1 µM (FGF-R1; 1 μM) of 93 ± 6%, a remaining activity at 10 µM (FGF-R1; 10 μM) of 101 ± 15% and a remaining activity at 1 µM (VEG-FR; 1 μM) of 113 ± 10%. It also gave a remaining activity at 10 µM (VEG-FR; 10 μM) of 88 ± 28%, a remaining activity at 1 µM (BRSK2; 1 μM) of 115 ± 14% and a remaining activity at 10 µM (BRSK2; 10 μM) of 104%. It also gave a remaining activity at 1 µM (BRSK1; 1 μM) of 108 ± 14%, a remaining activity at 10 µM (BRSK1; 10 μM) of 88 ± 22% and a remaining activity at 1 µM (EPH-B1; 1 μM) of 77 ± 15%. It also gave a remaining activity at 10 µM (EPH-B1; 10 μM) of 80 ± 19%, a remaining activity at 1 µM (CHK2; 1 μM) of 106 ± 1% and a remaining activity at 10 µM (CHK2; 10 μM) of 68 ± 6%. For the same molecule, the remaining activity at 1 µM (PINK; 1 μM) was 101 ± 13%, the remaining activity at 10 µM (PINK; 10 μM) was 59 ± 4% and the remaining activity at 1 µM (RSK2; 1 μM) was 116 ± 5%. The remaining activity at 10 µM (RSK2; 10 μM) was 101 ± 3%.
